Here are results for 15 compounds from ChEMBL document CHEMBL5729264, “Bicyclic compounds” (2022).

This experiment is described as follows: Dual-Glo Luciferase Assay: The Dual-Glo Luciferase Reagent was prepared by transferring the contents of one bottle of Dual-Glo Luciferase Buffer to one bottle of Dual-Glo Luciferase Substrate to create the Dual-Glo Luciferase Reagent. Mixing was performed by inversion until the substrate was thoroughly dissolved. After mixing, the reagent was aliquoted into 15 ml tubes. In the afternoon (24 hrs post compound treatment), the DMEM+medium in the 384 well plates were aspirated by Microplate Washer.Measuring firefly luciferase activity: 20 ul Dual-Glo Luciferase Reagent was added to the 384-well plates. The plates were protected from light to prevent interference with the assay. The plates were shaken for 1 min followed centrifuging plates at 1000 rpm for 30 seconds. After waiting at least 10 minutes, the firefly luminescence was measured by Envision.Measuring renilla luciferase activity: 20 ul Stop-Glo Reagent was added to the 384-well plates. The plates were shaken for 1 min and then centrifuged at 1000 rpm for 30 seconds. After waiting at least 10 minutes, the renilla luminescence was measured by Envision.Compound IC50 and maximum inhibition on the firefly luciferase and renilla luciferase activities were reported separately.

Molecules are shown by their SMILES.

What is called IC50 is the concentration at which inhibition is half-maximal. Take `C[C@H](CCN(C)C)NC(=O)c1ccc2c(Oc3ccc(C(F)(F)F)cc3)cccc2c1`: the half-inhibitory concentration (IC50) is below 100 nM. For `C[C@H](NC(=O)c1ccc2c(Oc3ccc(C(F)(F)F)cc3)cccc2c1)C1(F)CNC1` the value was “in the range around 2000 nM”; for `C[C@@H](NC(=O)c1ccc2c(Oc3ccc(C(F)(F)F)cc3)cccc2c1)C1CCN(CC(F)F)CC1`, “in the range around 550 nM”. On to `C[C@H](CCNCCF)NC(=O)c1ccc2c(Oc3ccc(C(F)(F)F)cc3)cccc2c1`, for which the half-inhibitory concentration (IC50) is below 100 nM.

The compound `C[C@H](CCNCC(F)F)NC(=O)c1ccc2c(Oc3ccc(C(F)(F)F)cc3)cccc2c1` yielded an IC50 below 100 nM. To `C[C@@H](NC(=O)c1ccc2c(Oc3ccc(C(F)(F)F)cc3)cccc2c1)C1CCN(CCO)CC1` belongs “in the range around 550 nM”. To `CC(C)N1CCC([C@@H](C)NC(=O)c2ccc3c(Oc4ccc(C(F)(F)F)cc4)cccc3c2)CC1` belongs “in the range around 550 nM”; to `C[C@H](CCNCCO)NC(=O)c1ccc2c(Oc3ccc(C(F)(F)F)cc3)cccc2c1`, below 100 nM. Turning to `C[C@@H](NC(=O)c1ccc2c(Oc3ccc(C(F)(F)F)cc3)cccc2c1)C1(F)CNC1`, the half-inhibitory concentration (IC50) entry is “in the range around 550 nM”. For `CCNCC[C@@H](C)NC(=O)c1ccc2c(Oc3ccc(C(F)(F)F)cc3)cccc2c1` the value was below 100 nM.

In the case of `CNCC[C@@H](C)NC(=O)c1ccc2c(Oc3ccc(C(F)(F)F)cc3)cccc2c1`, the IC50 was below 100 nM. In the case of `C[C@@H](NC(=O)c1ccc2c(Oc3ccc(C(F)(F)F)cc3)cccc2c1)C1CCN(C)CC1`, the IC50 is below 100 nM. As for `CCN1CCC([C@@H](C)NC(=O)c2ccc3c(Oc4ccc(C(F)(F)F)cc4)cccc3c2)CC1`, the IC50 entry is “in the range around 550 nM”. Consider `C[C@@H](NC(=O)c1ccc2c(Oc3ccc(C(F)(F)F)cc3)cccc2c1)C1CCN(CCF)CC1`, for which the half-inhibitory concentration (IC50) result is “in the range around 550 nM”.

Regarding `C[C@@H](NC(=O)c1ccc2c(Oc3ccc(C(F)(F)F)cc3)cccc2c1)C1CCNCC1`, the IC50 was below 100 nM.
